Tested on: cortical cultures
Test: Neuroprotection in cortical cultures after toxin (okadaic acid), MTT survival assay
Assay type: cell-based, rat
Conditions: higher concentrations of GPE, FIG. 12, 24 hrs incubation, 8DIV
Procedure: One cortical hemisphere from a postnatal day 1 rat was used and collected into 4 ml of DMEM. Trituration was done with a 5 ml glass pipette and subsequently through an 18 gauge needle. Afterwards, the cell suspension was sieved through a 100 μm cell strainer and washed in 50 ml DMEM (centrifugation for 5 min at 250 g). […] After cells reached confluence, they were washed three times with PBS and adjusted to Neurobasal/B27 and incubated for another 3 days. This supernatant was frozen for transient storage until usage at −80° C. A dam was sacrificed by CO2-treatment in a chamber for up to 4 minutes and was prepared then for cesarean section. After surgery, the embryos were removed from their amniotic sacs, decapitated and the heads put on ice in DMEM/F12 medium for striatum and PBS+0.65% D(+)-glucose for cortex. The two cortical hemispheres were carefully removed by a spatula from the whole brain with the ventral side facing upside into a PBS +0.65% D(+)-glucose containing petri dish. […] Cells were counted and adjusted to 50,000 cells per 60 μl. […] The survival rate was determined by a colorimetric end-point MTT-assay at 595 nm in a multi-well plate reader. For the cerebellar microexplants four windows (field of 0.65 mm^2) with highest cell density were chosen and cells displaying neurite outgrowth were counted.

## NCC(=O)N1CCC[C@H]1C(=O)N[C@@H](CCC(=O)O)C(=O)O [GPE, glycyl-L-prolyl-L-glutamic acid]
  neuroprotection: 64%

Source: patent publication US20030055004A1, “GPE analogs and peptidominetics” (priority 2001, published 2003)
